# Data taken from patent US20010008770A1, “MICRO-ORGANISM WHICH CAN DESULPHURISE BENZOTHIOPHENES” (priority 1996, published 2001).
# Entries after “also recorded” stand apart in the source; their conditions may differ.
# Assays:
# [1] = tested on: Rhodococcus sp. strain IGTS8; conditions: background statement; cited from earlier work
# strain ECRD-1 = conditions: Lee, Senius and Grossman, 1996; cited from earlier work
# [2] = tested on: Rhodococcus sp. strain 213E; assay: Growth studies of strain 213E in mineral salts medium with a sole sulphur source (biomass OD600, Gibbs phenol assay, GC-MS of metabolites); conditions: for Biomass at end log phase / Mean Generation time: strain 213E in FruRM
# Description: (§1) The final pH was 7.2 without titration. In some experiments another sugar replaced glucose as the carbon-source.
# (§2) For cultures of strain IGTS8, DST (200 μM, added from a stock solution, 40 mM in acetone) was included.
# (§3) Growth studies SRM (50 ml in a 100 ml Ehrlenmyer flask) was inoculated with a loopful of cells from a plate and incubated in an orbital shaker (250 rpm, 30° C.). At intervals as appropriate, an 3 ml sample was removed aseptically for measurement of biomass (as optical density at 600 mm, O.D.600) and for phenol production using the Gibbs Assay. The Gibbs Assay was carried out as follows: 1.5 ml of the sample was aliquoted into a Eppendorf tube, centrifuged (12000 rpm, 5 min) to remove the cells and frozen (−20° C.) until the end of the experiment. The samples were then thawed out and 1.0 ml of the supernatant was transferred to a 1 ml disposable spectrophotometer cuvette. 10 μl Gibbs reagent (10 mM in acetone) was then added to each cuvette. A blank solution (SRM +10 μg Gibbs reagent) was also prepared. The set was incubated overnight at 30° C., for full colour development, and the absorbance at 610 nm was measured.
# (§4) Cells were removed by centrifugation at 2800×g (3000 rpm) for 30 mins and the supernatant was titrated to pH 1 with 50% HCl and extracted three times with equal volumes of ethyl acetate. The ethyl acetate extracts ware pooled and dried by stirring for 1 h with anhydrous MgSO4 (100 g/l). The ethyl acetate was removed by rotory evaporation and the solids re-dissolved in 3.0 ml ethyl acetate.
# (§5) The GC was fitted with a Hewlett Packard capillary column HP-5MS, of length 30 m. The carrier gas was helium. Run conditions were as follows: Start temperature 40° C. held for 2 min, followed by 10° C./min ramp rate to final temperature 240° C. Total run time, 24 min. The mass scan range was 40 to 550 amu.
# (§6) The flasks were incubated in an orbital shaker (120 rpm, 30° C.). At intervals 3 ml was withdrawn from each culture under sterile conditions for measurement of biomass and phenol concentration, as described in methods. The cells were also Gram stained and examined under the microscope.
# strain N1-36 = conditions: Wang and Krawiec, 1996a; cited from earlier work
# [3] = tested on: Rhodococcus sp. strain IGTS8; assay: Growth studies of strain IGTS8 in mineral salts medium with a sole sulphur source (biomass OD600, Gibbs phenol assay, GC-MS of metabolites); conditions: for mean generation time (MGT): strain IGTS8, as stated in the text (FruRM)
# Description: as §1, §2, §3, §4, §5, §6
# [4] = tested on: Rhodococcus sp. strain 213F; assay: Growth studies of strain 213F in mineral salts medium with a sole sulphur source (biomass OD600, Gibbs phenol assay, GC-MS of metabolites); conditions: for Biomass at end log phase / Mean Generation time: strain 213F in FruRM; for Biomass at end log phase / Mean Generation time / mean generation time (MGT): sulphur source 200 μM; for mean generation time (MGT): strain 213F, (FruRM)
# Description: as §1, §3
# The flasks were incubated in an orbital shaker (120 rpm, 30° C.). At intervals 3 ml was withdrawn from each culture under sterile conditions for measurement of biomass and phenol concentration, as described in methods.
# [5] = strain IGTS8 in SRM, sulphur source 200 μM
Compound,desulphurisation of compound by IGTS8 [1],desulphurisation of compound by strain 213E [2],Mean Generation time ([2]; sulphur source 200 μM),desulphurisation of compound by strain IGTS8 [3],desulphurisation of compound by strain 213F [4],Biomass at end log phase [4],Mean Generation time [4],mean generation time (MGT) [4],mean generation time (MGT) ([3]; sulphur source 200 μM),"Mean Generation time [3, 5]",also measured
c1ccsc1 [thiophene],not,–,–,–,–,–,–,–,–,–,–
"c1ccc2sccc2c1 [BTH, benzothiophene]",not,efficiently desulphurise,9.0 h,unable to desulphurise; also recorded: does not desulplurise,efficiently desulphurise; also recorded: able to desulphurise; also recorded: appears to desulphurise,6.0 OD600,8.0 h,around 8 h,–,–,"desulphurisation activity of strain ECRD-1 (strain ECRD-1): negligible; toxicity to strain 213E (effect on MGT) ([2]; concentration range <200 μM (growth curves 50-200 μM)): not toxic; Biomass at end log phase ([2]; sulphur source 50 μM): 2.3 OD600; Mean Generation time ([2]; sulphur source 50 μM): 8.0 h; Biomass at end log phase ([2]; sulphur source 100 μM): 3.0 OD600; Mean Generation time ([2]; sulphur source 100 μM): 8.6 h; Biomass at end log phase ([2]; sulphur source 200 μM): 4.2 OD600; desulphurisation activity of strain N1-36 (strain N1-36): negligible; growth with compound as sole sulphur source ([3]; strain IGTS8 in SRM, over a period of 100 h): no significant growth"
"c1ccc2c(c1)sc1ccccc12 [DBT, dibenzothiophene]",desulphurises,unable to desulphurise; also recorded: does not desulphurise,–,desulphurised,able to desulphurise; also recorded: appears to desulphurise,5.4 OD600,12.4 h,12 h,around 8 h,7.0 h,"growth with compound as sole sulphur source ([2]; strain 213E, compound substituted for BTH, FruRM, over a period of 100 h): no significant growth; Biomass at end log phase ([3]; strain IGTS8 in SRM, sulphur source 200 μM, 1 cm pathlength): 6.0 OD600"
"O=S(=O)([O-])[O-].[Na+].[Na+] [sulphate, Sodium sulphate]",–,–,4.4 h,–,–,–,3.6 h,around 4 h,around 4 h,3.2 h,"mean generation time (MGT) ([2]; strain 213E, sulphur source 200 μM): around 4 h"
